Patent publication US20220062240A1, “METHODS OF TREATING CANCER USING A CLK INHIBITOR” (BioSplice Therapeutics, Inc., priority 2018, published 2022)
Read-outs that look alike come from different tables or passages of the source.

What was measured:
[1] = test system: SRSF6 and SRSF5 phosphorylation in SW480 cells; assay: SR phosphorylation immunoblot; assay type: cell-based, human; settings: SW480, 1 hour
Protocol: FIG. 6A is an immunoblot showing phosphorylated SRSF6 and SRSF5 in SW480 cells treated as indicated for 1 hour. Total SRSF5 and R-actin blots were used as loading controls. The blots are representative of two experiments.
First, it was determined that CLK1, CLK2, and CLK3 localized into the nucleus, while CLK4 was predominantly detected in the cytoplasm (FIG. 5). […]. Zhou et al., Chromosoma 122, 191-207, 2013).
(§1) For indicated experiments, cells were pelleted by centrifugation and washed with PBS and protein from the cell pellet was fractionated into cytoplasmic and nuclear fractions using a NE-PER™Nuclear and Cytoplasmic Extraction Reagents kit containing Halt™ protease and phosphatase inhibitors (Thermo Fisher). Protein concentrations of the samples were quantified using the Pierce Micro BCA protein assay kit (Thermo Fisher). […] Primary antibodies were incubated overnight at 4° C., with GAPDH, Lamin B1 or β-actin being used as loading controls (refer to Table 19 for primary antibodies and dilutions used).

[2] = test system: nuclear speckles in SW480 cells; assay: Nuclear speckle staining (phospho-SC35); assay type: cell-based, human; settings: SW480, 6 hours, 0.3-10 μM
Protocol: […]. The cells were stained with a phospho-SC35 antibody (green) and a Hoechst 33342 nuclear stain (blue). Scale bar, 10 μm.
FIG. 9A is a set of representative immunofluorescence images (×100 magnification) of SW480 cells treated with indicated concentrations for 6 hours. The cells were stained with a phospho-SC35 antibody (green) and a Hoechst 33342 nuclear stain (blue). Scale bar, 10 μm.
[…]. After approximately 6 hr, cells were fixed and stained a phospho-SC35 antibody (Santa Cruz Biotechnology). Cells were then labelled with an Alexa-Fluor 488 secondary antibody (Thermo Fisher) containing DAPI (Thermo Fisher). Cells were imaged at 100× magnification.

[3] = test system: SW480 cells; assay: Wnt pathway gene (qRT-PCR) and protein (immunoblot) expression; assay type: cell-based, human; settings: SW480, 24 hours, compared to DMSO
Protocol: Fold-change relative to DMSO is shown (n=3 biological replicates per group, Mean±SD, **P<0.01; ***P<0.001, student's two-tailed t-test).
(§2) FIG. 6D is an immunoblot showing Wnt pathway-related protein expression in SW480 cells treated as indicated for 24 hours. The proteins were separated into nuclear and cytoplasmic fractions. GAPDH and Lamin B1 represent cytoplasmic and nuclear protein loading controls, respectively. The blots are representative of two experiments.
as §2, with “6E” for “6D”, “48” for “24”
The fold-change relative to DMSO is shown (n=3 biological replicates per group, Mean±SD, *P<0.05; **P<0.01; ***P<0.001, student's two-tailed t-test).
FIG. 7C is an immunoblot showing protein expression of hits identified in FIG. 7A. SW480 cells were treated as indicated for 24 hours and proteins were separated into nuclear and cytoplasmic fractions. GAPDH and Lamin B1 represent the cytoplasmic and nuclear protein loading controls, respectively. The blots are representative of two experiments.
as §1
Total RNA was isolated using RNeasy Plus mini kit (Qiagen) or MagMAX Total RNA kit (Thermo Fisher) as per the manufacturers' protocol. cDNA was synthesized using the iScript cDNA Synthesis Kit (Bio-Rad), followed before performing qRT-PCR. Reactions were then run on a real-time PCR system (CFX384; Bio-Rad). Relative gene expression was determined by normalizing to GAPDH using the ΔΔCt method.

[4] = test system: Wnt responsive TOPflash reporter in SW480 colon cancer cells; assay: TOPflash β-catenin/TCF-responsive reporter assay; assay type: cell-based, human
Protocol: Human colorectal cancer cell line SW480, stably expressing the Wnt responsive TOPflash promoter linked to luciferase gene (TOPflash) was used along with SW480 stably expressing a control EF1a-Luciferase reporter gene (GenTarget #LVP434) as a counterscreen. […] Cells were plated at ˜10,000 cells/well and incubated for 40 hours. Luminescence was detected using Bright-Glo (Promega Corp.).

[5] = test system: SW480 cells; assay: Cell viability assay in SW480 cells (Compound 12, CC-671, Harmine); assay type: cell-based; settings: Homo sapiens, SW480, 96 h, read-out: EC50 cell viability
Description: The data is representative from three independent assays performed in quadruplicate.

| EC50 [4] | SMILES | SR phosphorylation (SRSF6, SRSF5) [1] | enlargement of nuclear speckles [2] | gene expression of AXIN2, LEF1, MYC, TCF7, CTNNB1 and TCF7L2 [3] | EC50 ([4]; Homo sapiens) | EC50 [5] |
| --- | --- | --- | --- | --- | --- | --- |
| – | CNC(=O)c1ccc(Nc2nc(OC3CCCC3)c3c(-c4ccc5nc(C)oc5c4)c[nH]c3n2)c(OC)c1 [CC-671, reference compound] | not as effective as Compound 12 | only at higher doses of 10 μM and 3 μM | minimal effect | – | – |
| – | COc1ccc2c(c1)[nH]c1c(C)nccc12 [Harmine] | not active | not observed | minimal effect | > 10 µM | > 10 µM |
| 1.06 µM | C[C@H]1[C@H]2N(C(=O)CN(C)N2C(=O)NCc2ccccc2)[C@@H](Cc2ccc(OP(=O)(O)O)cc2)C(=O)N1Cc1cccc2cccnc12 [PRI-724] | – | – | – | – | – |
